The text below walks through data of patent US11236069B2, “KIF18A inhibitors” (AMGEN INC., priority 2018, dated 2022).

Molecules are shown by their SMILES.

Sequence of Recombinant human KIF18A (1-467 His-tagged) protein (Q8NI77 1-467): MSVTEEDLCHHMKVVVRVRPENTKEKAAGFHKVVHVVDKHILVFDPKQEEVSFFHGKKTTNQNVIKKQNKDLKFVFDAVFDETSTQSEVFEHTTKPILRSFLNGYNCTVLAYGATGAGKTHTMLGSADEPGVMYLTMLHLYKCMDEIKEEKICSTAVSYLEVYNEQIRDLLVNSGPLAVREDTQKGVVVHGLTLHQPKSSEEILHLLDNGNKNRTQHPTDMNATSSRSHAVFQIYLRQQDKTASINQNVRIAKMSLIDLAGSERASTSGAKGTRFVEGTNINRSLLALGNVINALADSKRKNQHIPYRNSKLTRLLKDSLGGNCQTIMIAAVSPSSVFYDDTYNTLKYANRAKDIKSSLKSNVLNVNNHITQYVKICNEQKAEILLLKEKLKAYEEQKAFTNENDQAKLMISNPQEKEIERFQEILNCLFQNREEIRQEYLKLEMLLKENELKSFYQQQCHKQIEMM
Sequence of Recombinant human KIF18A (1-467 His-tagged) protein (P02550 whole entry partner): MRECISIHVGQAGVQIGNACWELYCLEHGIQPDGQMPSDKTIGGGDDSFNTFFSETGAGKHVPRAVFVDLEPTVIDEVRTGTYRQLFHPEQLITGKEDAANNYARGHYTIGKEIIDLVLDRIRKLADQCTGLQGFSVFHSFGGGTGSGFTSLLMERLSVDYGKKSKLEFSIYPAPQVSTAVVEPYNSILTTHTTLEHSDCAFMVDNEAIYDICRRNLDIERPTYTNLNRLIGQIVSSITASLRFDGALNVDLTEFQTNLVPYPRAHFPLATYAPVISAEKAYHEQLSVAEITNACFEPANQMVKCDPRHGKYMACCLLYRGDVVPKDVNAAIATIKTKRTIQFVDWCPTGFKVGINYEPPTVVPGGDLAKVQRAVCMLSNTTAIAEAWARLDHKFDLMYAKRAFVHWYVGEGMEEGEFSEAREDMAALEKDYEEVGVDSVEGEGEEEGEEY
Sequence of Recombinant human KIF18A (1-467 His-tagged) protein (P02554 whole entry partner): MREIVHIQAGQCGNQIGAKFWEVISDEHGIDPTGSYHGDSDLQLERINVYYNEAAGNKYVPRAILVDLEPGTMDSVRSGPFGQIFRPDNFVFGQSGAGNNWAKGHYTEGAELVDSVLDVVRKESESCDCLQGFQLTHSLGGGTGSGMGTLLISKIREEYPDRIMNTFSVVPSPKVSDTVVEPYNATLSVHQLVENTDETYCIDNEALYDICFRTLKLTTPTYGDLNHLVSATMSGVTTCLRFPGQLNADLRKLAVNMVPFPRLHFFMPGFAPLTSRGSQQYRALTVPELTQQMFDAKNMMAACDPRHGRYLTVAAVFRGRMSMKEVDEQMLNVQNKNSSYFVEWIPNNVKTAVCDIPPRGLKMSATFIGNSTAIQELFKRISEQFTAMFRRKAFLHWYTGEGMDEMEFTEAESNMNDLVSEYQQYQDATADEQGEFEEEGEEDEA

The first assay addresses Recombinant human KIF18A (1-467 His-tagged) protein (Homo sapiens (Human), UniProt Q8NI77). In words: KIF18A Enzyme Assay: microtubule-stimulated ATPase activity (ADP-Glo). The following applies: read-out: KIF18A ATPase IC50. In general terms: ADP-Glo first removes unused ATP, then detects ADP through luciferase.
From the text: KIF18A Enzyme Assay: Microtubule-stimulated ATPase activity assay is used to measure KIF18A enzyme activity after treatment with compound. Compounds were 2-fold serially diluted in DMSO (Sigma Inc) over 22-point concentration range. […] The assay measures ADP formed from the ATPase reaction.
As to `Cc1cc(NC(=O)c2ccc(NS(=O)(=O)[C@H](C)CO)cc2N2CCC3(CC2)CC3)nc(N2CCC(F)(F)CC2)n1` [Example 5-1, (R)-N-(2-(4,4-Difluoropiperidin-1-yl)-6-methylpyrimidin-4-yl)-4-((2-hydroxy-1-methylethyl)sulfonamido)-2-(6-azaspiro[2.5]octan-6-yl)benzamide], the IC50 was 62 nM.

The assay is the same for the next values; noted with them: read-out: KIF18A ATPase IC50; 30 nM KIF18A, 30 μg/mL pig microtubules, ATP at Km 75 μM, ADP-Glo luminescence.
Consider `C[C@H]1CN(c2nccc(NC(=O)c3ccc(NS(=O)(=O)CCO)cc3N3CCC4(CC3)CC4)n2)CCO1` [Example 11-1, (S)-4-((2-Hydroxyethyl)sulfonamido)-N-(2-(2-methylmorpholino)pyrimidin-4-yl)-2-(6-azaspiro[2.5]octan-6-yl)benzamide], for which the IC50 was 37 nM.

As to `Cc1cc(NC(=O)c2ccc(NS(C)(=O)=O)cc2N2CCC3(CC2)CC3)nc(N2CC(F)(F)C2)n1` [Example 11-24, N-(2-(3,3-Difluoroazetidin-1-yl)-6-methylpyrimidin-4-yl)-4-(methylsulfonamido)-2-(6-azaspiro[2.5]octan-6-yl)benzamide], the IC50 worked out at 55.1 nM.

Turning to `CC(C)(O)c1cc(NC(=O)c2ccc(NS(=O)(=O)CCO)cc2N2CCC3(CC2)CC3)nc(N2CCC(F)(F)CC2)n1` [Example 6-37, N-(2-(4,4-Difluoropiperidin-1-yl)-6-(2-hydroxypropan-2-yl)pyrimidin-4-yl)-4-((2-hydroxyethyl)sulfonamido)-2-(6-azaspiro[2.5]octan-6-yl)benzamide], the IC50 stood at 125 nM.

Take `Cc1cc(NC(=O)c2ccc(NS(C)(=O)=O)cc2N2CCC3(CC2)CC3)nc(N2CCC(F)(F)CC2)n1` [Example 6-21, N-(2-(4,4-Difluoropiperidin-1-yl)-6-methylpyrimidin-4-yl)-4-(methylsulfonamido)-2-(6-azaspiro[2.5]octan-6-yl)benzamide]: the IC50 came to 39 nM.

For `Cc1cc(NC(=O)c2ccc(NS(=O)(=O)CCO)cc2N2CCC3(CC2)CC3)nc(N2CC(OC(F)F)C2)n1` [Example 11-10, N-(2-(3-(Difluoromethoxy)azetidin-1-yl)-6-methylpyrimidin-4-yl)-4-((2-hydroxyethyl)sulfonamido)-2-(6-azaspiro[2.5]octan-6-yl)benzamide], the IC50 was determined as 192 nM.

As to `C[C@@H]1CN(c2nccc(NC(=O)c3ccc(NS(=O)(=O)[C@H](C)CO)cc3N3CCC4(CC3)CC4)n2)CCO1` [Example 6-24-2, 4-(((R)-2-hydroxy-1-methylethyl)sulfonamido)-N-(2-((R)-2-methylmorpholino)pyrimidin-4-yl)-2-(6-azaspiro[2.5]octan-6-yl)benzamide], the IC50 stood at 28 nM.

On to `Cc1cc(NC(=O)c2ccc(NS(=O)(=O)CCO)cc2N2CCC3(CC2)CC3)nc(N2CC3C[C@]3(O)C2)n1` (stereo partly drawn) [Example 11-32, N-(2-((1R)-1-Hydroxy-3-azabicyclo[3.1.0]hexan-3-yl)-6-methylpyrimidin-4-yl)-4-((2-hydroxyethyl)sulfonamido)-2-(6-azaspiro[2.5]octan-6-yl)benzamide], for which the IC50 was 193 nM.

As to `Cc1cc(NC(=O)c2ccc([S@](=N)(=O)C3CC3)cc2N2CCC3(CC2)CC3)nc(N2CCO[C@H](C)C2)n1` [Example 19-7, 2-(6-Azaspiro[2.5]octan-6-yl)-4-(S-cyclopropylsulfonimidoyl)-N-(6-methy-2-((2R)-2-methyl-4-moprpholinyl)-4-pyrimidinyl)benzamide], the IC50 amounted to 195 nM.

Regarding `Cc1cc(NC(=O)c2ccc(NS(=O)(=O)C3([C@H](C)O)CC3)cc2N2CCC3(CC2)CC3)nc(N2CCC(F)(F)CC2)n1` [Example 6-31-2, (S)-N-(2-(4,4-Difluoropiperidin-1-yl)-6-methylpyrimidin-4-yl)-4-((1-(1-hydroxyethyl)cyclopropane)-1-sulfonamido)-2-(6-azaspiro[2.5]octan-6-yl)benzamide], the IC50 was determined as 281 nM.

Consider `Cc1cc(NC(=O)c2ccc(NS(=O)(=O)CCO)cc2N2CCC3(CC2)CC3)cc(N2CCO[C@H](C)C2)n1` [Example 11-66], for which the IC50 was found to be 148 nM.

With `Cc1cc(NC(=O)c2ccc(S(=O)(=O)C(C)C)cc2N2CCC3(CC2)CC3)nc(N2CCC(F)(F)CC2)n1` [Example 14-3, N-(2-(4,4-Difluoropiperidin-1-yl)-6-methylpyrimidin-4-yl)-4-(isopropylsulfonyl)-2-(6-azaspiro[2.5]octan-6-yl)benzamide], the IC50 was 128 nM.

As to `Cc1cc(NC(=O)c2ccc(NS(=O)(=O)CCO)cc2N2CCC3(CC2)CC3)nc(N2CC3(CC3)C2)n1` [Example 11-17, 4-((2-Hydroxyethyl)sulfonamido)-N-(6-methyl-2-(5-azaspiro[2.3]hexan-5-yl)pyrimidin-4-yl)-2-(6-azaspiro[2.5]octan-6-yl)benzamide], the IC50 came to 1090 nM.

On to `O=C(Nc1ccnc(N2CCC(F)(F)CC2)c1F)c1ccc(NS(=O)(=O)CCO)cc1N1CCC2(CC1)CC2` [Example 11-63, N-(2-(4,4-Difluoropiperidin-1-yl)-3-fluoropyridin-4-yl)-4((2-hydroxyethyl)sulfonamido)-2-(6-azaspiro[2.5]octan-6-yl)benzamide], for which the IC50 is 22 nM.

Consider `Cc1cc(NC(=O)c2ccc(NS(=O)(=O)C(C)(C)C)cc2N2CCC3(CC2)CC3)nc(N2CC(F)(F)C2)n1` [Example 11-83, N-(2-(3,3-Difluoroazetidin-1-yl)-6-methylpyrimidin-4-yl)-4-((1,1-dimethylethyl)sulfonamido)-2-(6-azaspiro[2.5]octan-6-yl)benzamide], for which the IC50 was determined as 98 nM.

In the case of `Cc1cc(NC(=O)c2ccc(NS(=O)(=O)CCO)cc2N2CCC3(CC2)CC3)nc(N2CCOC3(CC3)C2)n1` [Example 11-47, 4-((2-Hydroxyethyl)sulfonamido)-N-(6-methyl-2-(4-oxa-7-azaspiro[2.5]octan-7-yl)pyrimidin-4-yl)-2-(6-azaspiro[2.5]octan-6-yl)benzamide], the IC50 was 95 nM.

For `Cc1cc(NC(=O)c2ccc(NS(=O)(=O)CC3CC3)cc2N2CCC3(CC2)CC3)nc(N2CC(F)(F)C2)n1` [Example 11-78, 4-((Cyclopropylmethyl)sulfonamido)-N-(2-(3,3-difluoroazetidin-1-yl)-6-methylpyrimidin-4-yl)-2(6-azaspiro[2.5]octan-6-yl)benzamide], the IC50 was 125 nM.

On to `Cc1cc(NC(=O)c2ccc(NS(=O)(=O)CCCO)cc2N2CCC3(CC2)CC3)nc(N2CCC(F)(F)CC2)n1` [Example 6-15, N-(2-(4,4-Difluoropiperidin-1-yl)-6-methylpyrimidin-4-yl)-4-((3-hydroxypropyl)sulfonamido)-2-(6-azaspiro[2.5]octan-6-yl)benzamide], for which the IC50 stood at 86 nM.

Take `Cc1cc(NC(=O)c2ccc(S(=O)(=O)CC(C)(C)O)cc2N2CCC3(CC2)CC3)nc(N2CCC(F)(F)CC2)n1` [Example 14-4, N-(2-(4,4-Difluoropiperidin-1-yl)-6-methylpyrimidin-4-yl)-4-((2-hydroxy-2-methylpropyl)sulfonyl)-2-(6-azaspiro[2.5]octan-6-yl)benzamide]: the IC50 stood at 806 nM.

Regarding `Cc1cc(NC(=O)c2ccc(NS(=O)(=O)CCO)cc2N2CCC3(CC2)CC3)nc(N2CCO[C@H](C)C2)n1` [Example 3, (R)-4-((2-Hydroxyethyl)sulfonamido)-N-(6-methyl-2-(2-methylmorpholino)pyrimidin-4-yl)-2-(6-azaspiro[2.5]octan-6-yl)benzamide], the IC50 was found to be 57 nM.

As to `Cc1cc(NC(=O)c2ccc(S(=O)(=O)NC3(C)COC3)cc2N2CCC3(CC2)CC3)nc(N2CCC(F)(F)CC2)n1` [Example 2-5, N-(2-(4,4-Difluoropiperidin-1-yl)-6-methylpyrimidin-4-yl)-4-(N-(3-methyloxetan-3-yl)sulfamoyl)-2-(6-azaspiro[2.5]octan-6-yl)benzamide], the IC50 turned out to be 103 nM.

Consider `Cc1cc(NC(=O)c2ccc(NS(=O)(=O)C[C@@H](C)O)cc2N2CCC3(CC2)CC3)nc(N2CCC(F)(F)CC2)n1` [Example 6-32-1, (R)-N-(2-(4,4-Difluoropiperidin-1-yl)-6-methylpyrimidin-4-yl)-4-((2-hydroxypropyl)sulfonamido)-2-(6-azaspiro[2.5]octan-6-yl)benzamide], for which the IC50 is 112 nM.

Regarding `Cc1cc(NC(=O)c2ccc(S(=N)(=O)C3COC3)cc2N2CCC3(CC2)CC3)nc(N2CCC(F)(F)CC2)n1` (stereo not drawn) [Example 19-1, N-(2-(4,4-Difluoropiperidin-1-yl)-6-methylpyrimidin-4-yl)-4-(oxetane-3-sulfonimidoyl)-2-(6-azaspiro[2.5]octan-6-yl)benzamide], the IC50 turned out to be 163 nM.

On to `N=S(=O)(c1ccc(C(=O)Nc2ccnc(N3CCC(F)(F)CC3)c2)c(N2CCC3(CC2)CC3)c1)C1CC1` (stereo not drawn) [Example 19-6, 4-(Cyclopropanesulfonimidoyl)-N-(2-(4,4-difluoropiperidin-1-yl)pyridin-4-yl)-2-(6-azaspiro[2.5]octan-6-yl)benzamide], for which the IC50 worked out at 42 nM.

As to `Cc1cc(NC(=O)c2ccc(S(=O)(=O)C3CNC3)cc2N2CCC3(CC2)CC3)nc(N2CCC(F)(F)CC2)n1` [Example 21, 4-(Azetidin-3-ylsulfonyl)-N-(2-(4,4-difluoropiperidin-1-yl)-6-methylpyrimidin-4-yl)-2-(6-azaspiro[2.5]octan-6-yl)benzamide], the IC50 amounted to 40 nM.

With `Cc1cc(NC(=O)c2ccc(NS(=O)(=O)CCO)cc2N2CCC3(CC2)CC3)nc(N2[C@H](C)COC[C@@H]2C)n1` [Example 11-48, N-(2-((3S,5R)-3,5-Dimethylmorpholino)-6-methylpyrimidin-4-yl)-4-((2-hydroxyethyl)sulfonamido)-2-(6-azaspiro[2.5]octan-6-yl)benzamide], the IC50 stood at 95 nM.

In the case of `Cc1cc(NC(=O)c2ccc(NS(=O)(=O)CCO)cc2N2CCC3(CC2)CC3)nc(N2C[C@H]3C[C@H]3C2)n1` [Example 11-29, N-(2-((1R,5S)-3-Azabicyclo[3.1.0]hexan-3-yl)-6-methylpyrimidin-4-yl)-4-((2-hydroxyethyl)sulfonamido)-2-(6-azaspiro[2.5]octan-6-yl)benzamide], the IC50 is 20 nM.

The term IC50 denotes the point on the concentration scale where inhibition reaches its midpoint.
